Source: ChEMBL document CHEMBL3885881, “DrugMatrix”

Organism: Rattus norvegicus
Assay: DrugMatrix - Regimen: Daily Repeat
Format: toxicity, organism-based, Sprague-Dawley
Parameters: regimen Daily Repeat, gender Male, age 6-8 weeks
Settings: in vivo, po, 12 mg/kg, route oral GAVAGE, dose level High, vehicle .5 % CMC; for ABSOLUTE BASOPHIL / ABSOLUTE EOSINOPHIL / ABSOLUTE LYMPHOCYTE / ABSOLUTE MONOCYTE / ABSOLUTE SEGMENTED NEUTROPHIL / BASOPHIL / EOSINOPHIL / ERYTHROCYTE COUNT / HEMATOCRIT / HEMOGLOBIN / LEUKOCYTE COUNT / LYMPHOCYTE / MEAN CORPUSCULAR HEMOGLOBIN / MEAN CORPUSCULAR HEMOGLOBIN CONCENTRATION / MEAN CORPUSCULAR VOLUME / MONOCYTE / NEUTROPHIL / NUCLEATED RED BLOOD CELLS / PLATELET COUNT: tissue Blood; for ALANINE AMINOTRANSFERASE / ALBUMIN / ALKALINE PHOSPHATASE / ASPARTATE AMINOTRANSFERASE / BLOOD UREA NITROGEN / CARBON DIOXIDE / CHLORIDE / CHOLESTEROL / CREATINE PHOSPHOKINASE / CREATININE / GLUCOSE / LACTATE DEHYDROGENASE / LIPASE / PHOSPHORUS / POTASSIUM / SODIUM / TOTAL BILIRUBIN / TOTAL PROTEIN / URIC ACID: tissue Plasma

N[C@@H](Cc1ccc(N(CCCl)CCCl)cc1)C(=O)O
ABSOLUTE BASOPHIL (72 h, time 3 day): 0 CELLS/uL
ABSOLUTE EOSINOPHIL (72 h, time 3 day): 202.33 CELLS/uL
ABSOLUTE LYMPHOCYTE (72 h, time 3 day): 10252.33 CELLS/uL
ABSOLUTE MONOCYTE (72 h, time 3 day): 0 CELLS/uL
ABSOLUTE SEGMENTED NEUTROPHIL (72 h, time 3 day): 1345.33 CELLS/uL
BASOPHIL (72 h, time 3 day): 0%
EOSINOPHIL (72 h, time 3 day): 1.67%
ERYTHROCYTE COUNT (72 h, time 3 day): 5.67 x10E6/uL
HEMATOCRIT (72 h, time 3 day): 35.43%
HEMOGLOBIN (72 h, time 3 day): 13.33 G/DL
LEUKOCYTE COUNT (72 h, time 3 day): 11.8 x10E3/uL
LYMPHOCYTE (72 h, time 3 day): 86.67%
MEAN CORPUSCULAR HEMOGLOBIN (72 h, time 3 day): 23.57 pg
MEAN CORPUSCULAR HEMOGLOBIN CONCENTRATION (72 h, time 3 day): 37.63 G/DL
MEAN CORPUSCULAR VOLUME (72 h, time 3 day): 62.57 fL
MONOCYTE (72 h, time 3 day): 0%
NEUTROPHIL (72 h, time 3 day): 11.67%
NUCLEATED RED BLOOD CELLS (72 h, time 3 day): 0 /100WBC
PLATELET COUNT (72 h, time 3 day): 1376 x10E3/uL
ALANINE AMINOTRANSFERASE (72 h, time 3 day): 52 u/L
ALBUMIN (72 h, time 3 day): 4.27 G/DL
ALKALINE PHOSPHATASE (72 h, time 3 day): 346 u/L
ASPARTATE AMINOTRANSFERASE (72 h, time 3 day): 88.33 u/L
BLOOD UREA NITROGEN (72 h, time 3 day): 15 mg/dL
CARBON DIOXIDE (72 h, time 3 day): 25.67 mmol/L
CHLORIDE (72 h, time 3 day): 108.33 MEQ/L
CHOLESTEROL (72 h, time 3 day): 69.67 mg/dL
CREATINE PHOSPHOKINASE (72 h, time 3 day): 205 u/L
CREATININE (72 h, time 3 day): 0.14 mg/dL
GLUCOSE (72 h, time 3 day): 177 mg/dL
LACTATE DEHYDROGENASE (72 h, time 3 day): 85.33 u/L
LIPASE (72 h, time 3 day): 8.33 u/L
PHOSPHORUS (72 h, time 3 day): 14 mg/dL
POTASSIUM (72 h, time 3 day): 6.75 MEQ/L
SODIUM (72 h, time 3 day): 147.33 MEQ/L
TOTAL BILIRUBIN (72 h, time 3 day): 0.17 mg/dL
TOTAL PROTEIN (72 h, time 3 day): 5.9 G/DL
URIC ACID (72 h, time 3 day): 1.93 mg/dL
ABSOLUTE BASOPHIL (120 h, time 5 day): 0 CELLS/uL
ABSOLUTE EOSINOPHIL (120 h, time 5 day): 270.33 CELLS/uL
ABSOLUTE LYMPHOCYTE (120 h, time 5 day): 13398.33 CELLS/uL
ABSOLUTE MONOCYTE (120 h, time 5 day): 0 CELLS/uL
ABSOLUTE SEGMENTED NEUTROPHIL (120 h, time 5 day): 1364.67 CELLS/uL
BASOPHIL (120 h, time 5 day): 0%
EOSINOPHIL (120 h, time 5 day): 1.67%
ERYTHROCYTE COUNT (120 h, time 5 day): 5.64 x10E6/uL
HEMATOCRIT (120 h, time 5 day): 35.4%
HEMOGLOBIN (120 h, time 5 day): 13.53 G/DL
LEUKOCYTE COUNT (120 h, time 5 day): 15.03 x10E3/uL
LYMPHOCYTE (120 h, time 5 day): 89.33%
MEAN CORPUSCULAR HEMOGLOBIN (120 h, time 5 day): 24.03 pg
MEAN CORPUSCULAR HEMOGLOBIN CONCENTRATION (120 h, time 5 day): 38.23 G/DL
MEAN CORPUSCULAR VOLUME (120 h, time 5 day): 62.83 fL
MONOCYTE (120 h, time 5 day): 0%
NEUTROPHIL (120 h, time 5 day): 9%
NUCLEATED RED BLOOD CELLS (120 h, time 5 day): 0 /100WBC
PLATELET COUNT (120 h, time 5 day): 1253 x10E3/uL
ALANINE AMINOTRANSFERASE (120 h, time 5 day): 43.33 u/L
ALBUMIN (120 h, time 5 day): 4.17 G/DL
ALKALINE PHOSPHATASE (120 h, time 5 day): 352 u/L
ASPARTATE AMINOTRANSFERASE (120 h, time 5 day): 75.67 u/L
BLOOD UREA NITROGEN (120 h, time 5 day): 16 mg/dL
CARBON DIOXIDE (120 h, time 5 day): 26.67 mmol/L
CHLORIDE (120 h, time 5 day): 101.67 MEQ/L
CHOLESTEROL (120 h, time 5 day): 68.67 mg/dL
CREATINE PHOSPHOKINASE (120 h, time 5 day): 312.67 u/L
CREATININE (120 h, time 5 day): 0.24 mg/dL
GLUCOSE (120 h, time 5 day): 170.67 mg/dL
LACTATE DEHYDROGENASE (120 h, time 5 day): 98.33 u/L
LIPASE (120 h, time 5 day): 8 u/L
PHOSPHORUS (120 h, time 5 day): 13.23 mg/dL
POTASSIUM (120 h, time 5 day): 6.07 MEQ/L
SODIUM (120 h, time 5 day): 145.27 MEQ/L
TOTAL BILIRUBIN (120 h, time 5 day): 0.2 mg/dL
TOTAL PROTEIN (120 h, time 5 day): 5.97 G/DL
URIC ACID (120 h, time 5 day): 1.5 mg/dL
